Laboratory results taken from patent EP2444396A1, “PHOTOPROTECTIVE COMPOSITION” (Apoteknos Para La Piel, S.L., priority 2009, dated 2010).

Columns and labels:
[1] = Absorption spectrum in methanol (195 - 400 nm); type: physicochemical; conditions: peak wavelength, 10 mg/ml
Description: In order to determine the absorption spectrum, a solution of 10 mg/ml of methanol was prepared from each of the substances. The methanol in turn was used to adjust the zero absorbance in each of the wavelengths in the range of 195 - 400 nm.

[2] = test system: Erythema induced by UVB radiation in mouse; assay: Photoprotection: erythema induced by UVB radiation in mouse skin; type: in vivo; design: key to Erythema induced by UVB radiation in mouse: presence (+); absence (-); conditions: individual animals No. 1-10; 0.5% gel topical, about 2.5 kJ/m^2 UVB, 24 hours after exposure
Description: The effect of p-nitrolophine and m-nitrolophine on erythema due to exposing the mouse skin to an irradiation source at maximum in the UVB region has been studied in these assays. The results obtained have been compared with the effect of 4-methylbenzylidene camphor (P5000) a substance considered as a UVB solar filter and with the effect of butyl methoxydibenzoylmethane (P1789) an UVA type filter, both products being commonly used in antisolar cosmetics.
35 male mice weighing more than 20 grams have been used. After receiving them, the animals were acclimated for 7 days at the place where the assays were preformed, they were being placed in a cage with controlled temperature (22°C), with relative humidity between 50% and 75%, replacing fresh filtered air approximately 10 times per hour and with 12 h light/dark cycles (7.00 - 19.00 light and from 19.00 to 7.00 dark). For this period and during the experimental period, the animals were fed ad libitum with standard diet for rodents and running water as drink.
The animals were randomly distributed into 4 experimental groups according to Table 7. The products to be tested were directly used, applying them in the form of a gel on an area of the skin such that each animal form its own control.
The test was performed following the method described by Winder et al. ["A study of Pharmacological influences on ultraviolet erythema in guinea pigs". Arch. Int Pharmacodyn, 116:261-292; 1958] and by other authors [Wendy et al. "The local antinociceptive and topical antiinflamatory effects of propyl gallate in rodents". Br. J. Pharmacol, 58:573 -581; 1976; Katiyar et al. "Protective Effects of Silymarin Against Photocarcinogenesis in a Mouse Skin Model". J Natl Cancer Inst 89:556-65; 1997] with slight modifications. The day […] the assay, as much hair as possible were removed from the animals by applying a layer of commercial hair-removing cream to remove all the trace of hair and to leave the skin of the back completely bare. The rest of the hair-removing cream were removed by means of washing and rinsing with running water and the animals were the returned to their corresponding cages where they remained until the following day.
On the day of the assay, the substances to be assayed were blindly applied on the back of the previously labelled animals following a random pattern (randomized). After applying the corresponding treatments, the animals were placed and pinned to the presentation platform of the equipment. The animals were then placed 8 cm from an ultraviolet light source of 4*40w with 313 nm of fundamental emission and a range comprised approximately between 290 and 350 nm and with an anti-UVC filter. The emission spectrum of said light source is depicted in Figure 1.
The exposure was maintained until all the animals have received an approximate total dose of 2.5 kJ/m^2. The dose of irradiation applied was determined by means of a ultraviolet light detector, the response curve of which is shown in Figure 2.
Twenty four hours after ending the exposure, the back of the animals was photographed and they were returned to their cages. The evaluation of erythema was performed by means of a positive/negative criterion, the percentage of protected animals being obtained. The statistic significance of the difference was evaluated by means of the non-parametric Fisher Test.

[3] = molecular target: T1, ERβ (Homo sapiens, UniProt Q92731); assay: Estrogenicity reporter gene bioassay (luciferase activity) in HELN-ERβ cells; type: cell-based
T1 construct: expressed in transfected cells; host or cells: HeLa (HELN-ERβ)
Description: Briefly, the transactivation bioassay (Reporter gene assay) used are based on the use of breast and uterine cancer cell lines transfected with different native or modified hormone receptors. The resulting cell lines further contain a reporter gene regulated by estrogens through the estrogen response element, the globin promoter and the luciferase gene.
HELN-ERα and HELN-ERβ cell lines were obtained by means of transfecting the HeLa uterine cancer cell line. In a first phase, said cells were transfected with an estrogen sensitive response element and then with the estrogen receptor alpha or beta (ERα or ERβ). The selection of clones resistant to geneticin and puromycin was performed using a concentration of 1 mg/mL and 0.5 mg/mL, respectively. The maintenance medium as well as the experimental medium of these 2 cell lines is DMEM F12 without phenol red supplemented with 6% of FBS (lacking of estrogens), 1% of penicillin / streptomycin, 1 mg/mL of geneticin and 0.5 µg/mL of puromycin.
The cells were seeded at a density of 5x10^4 cells per well in white opaque 96 well plates in 150 µL of experimental medium. After 8 hours, the compounds to be assayed (p-nitrolophine and estradiol) were prepared (concentrated 4x) in the same medium and were added to each well (50 µl). The cells were incubated for 16 hours at 37°C. At the end of the incubation, the medium was removed and replaced with fresh medium containing […] luciferin [at that concentration, luciferin diffuses into cell producing a luminescent signal which is stable after 5 minutes and for at least 2 hours]. The plates were then introduced in the luminometer to measure the luminescence for 2 seconds. A YicroBeta Trilux luminometer (EGG Wallac) apparatus was used to detect luciferase activity.
The assays were preformed in quadruple for each concentration (0.01-10 µM) in at least three independent experiments. […] The values of luciferase activity obtained were analyzed using the one-way ANOVA statistic test. The differences were considered significant when P was less than […] (P < 0.05).

T1 sequence (Q92731 whole entry, species assumed): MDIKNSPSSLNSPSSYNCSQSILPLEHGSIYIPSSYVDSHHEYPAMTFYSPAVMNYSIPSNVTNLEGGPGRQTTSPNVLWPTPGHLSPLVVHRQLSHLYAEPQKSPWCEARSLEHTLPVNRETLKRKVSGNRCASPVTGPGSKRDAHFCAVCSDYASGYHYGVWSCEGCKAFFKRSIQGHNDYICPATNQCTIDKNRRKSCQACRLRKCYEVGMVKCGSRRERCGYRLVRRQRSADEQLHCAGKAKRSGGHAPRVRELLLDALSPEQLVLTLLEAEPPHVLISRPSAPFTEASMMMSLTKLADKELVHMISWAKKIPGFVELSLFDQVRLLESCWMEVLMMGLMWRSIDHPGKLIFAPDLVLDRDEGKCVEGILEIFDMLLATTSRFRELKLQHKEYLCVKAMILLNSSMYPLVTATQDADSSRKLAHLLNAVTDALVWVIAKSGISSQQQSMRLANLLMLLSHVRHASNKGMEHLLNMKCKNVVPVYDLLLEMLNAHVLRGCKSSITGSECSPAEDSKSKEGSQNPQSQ

maximum absorption [1]: 379 nm
activity at 0.01 µM [3]: 9.6 ± 1.4%
activity at 0.03 µM [3]: 10 ± 0.8%
activity at 0.1 µM [3]: 10.2 ± 1.3%
activity at 0.3 µM [3]: 10.3 ± 1.1%
activity at 1 µM [3]: 10.1 ± 1.3%
activity at 3 µM [3]: 10.2 ± 1.9%
activity at 10 µM [3]: 10.6 ± 1.2%
estrogenicity ([3]; HELN-ERβ line, conclusion in words): not an estrogenic compound
SMILES: O=[N+]([O-])c1ccc(-c2nc(-c3ccccc3)c(-c3ccccc3)[nH]2)cc1 [p-nitrolophine, 2-(4-nitrophenyl)-4,5-diphenyl-1H-imidazole]
Erythema induced by UVB radiation in mouse [2]: -
